Reference: publication PMC4109680, “Identification and Preclinical Pharmacology of the γ-Secretase Modulator BMS-869780” (International Journal of Alzheimer's Disease, 2014)

Key:
[1] = tested on: brain Aβ1-42, brain Aβ1-40, plasma Aβ1-40; assay: Rat intraperitoneal dose response, brain and plasma Aβ 5 hours after dosing; assay type: in vivo; details: 30 mg/kg, 5 hours
Protocol: (§1) IC50 determinations for Aβ1-42 and Aβ1-40 in H4-APPsw cultures in 384-well format were determined using homogeneous time-resolved fluorescence immunoassays as previously described. The principle of these assays is illustrated in Figures 1(c) and 1(d). In other experiments using H4-APPsw cultures, Aβ was quantified by ELISA; for Aβ1-42 the combination of monoclonal antibodies was 26D6 and 565-HRP; for Aβ1-40 it was TSD and 26D6-HRP, and for Aβ1-x it was 4G8 and 26D6-HRP. In some experiments a novel 4-plex Aβ electrochemiluminescence immunoassay was used (Mesoscale Discovery catalog number N45ZA-1). Briefly, the 4-plex was carried out in 96-well format, with 4 separate spots of capture antibodies in each well. The 96-well plates were prepared by the manufacturer, with spots of monoclonal antibodies for Aβ1-42, Aβ1-40, and Aβ1-38, and an additional fourth spot of streptavidin in each well. Plates were initially incubated with blocking buffer (5% BSA in phosphate buffered saline, 200 μL per well) for 2 hours at ambient temperature and then with D2A6H-biotin conjugate (50 ng/mL in 1% BSA, phosphate buffered saline, 25 μL per well) for 1 hour. Plates were then rinsed with phosphate buffered saline before addition of experimental samples for determination of Aβ1-42, Aβ1-40, Aβ1-38, and Aβ1-37 levels, following the manufacturer's instructions as for the Aβ 3-plex kit (catalog number K15148E-1). Rat brain extracts for use in the 4-plex assay were made in 0.2% diethylamine, as previously described. For detection of rat Aβ peptides in the 4-plex (Figure 5), 252Q6-sulfo-tag conjugate was used, and for detection of human Aβ peptides from cell cultures 6E10-sulfo-tag conjugate was used. For Aβ in transiently transfected PS1/PS2 dKO fibroblasts, Aβ1-42 was quantified using an ELISA kit (WACO), and Aβ1-40 was quantified by ELISA as described above for H4-APPsw cultures. For triple transgenic mice (3xTg; [63]), human transgenic Aβ1-42 was assayed in brain homogenates using an ELISA kit (WACO). For the rat and mouse experiments illustrated in Figures 7 and 8, brain samples were prepared by solid phase extraction, and endogenous rat brain Aβ1-42 and Aβ1-40 were quantified by ELISA as previously described for wild type mice. For brain extracts made using solid phase extraction, calibration of Aβ was relative, based on the approximately linear response of the assay in the range tested. For brain extracts made in 0.2% diethylamine, Aβ1-42, Aβ1-40, Aβ1-38, and Aβ1-37 concentrations in brain and cell culture samples were determined by fitting the results of immunoassays against calibration curves derived from a range of dilutions of the corresponding synthetic peptides on each assay plate using a quadratic curve fit (Graphpad Prizm 5.0). Aβ1-x was calibrated in the same way against synthetic Aβ1-40 peptide. Results were expressed in units of pM, corrected for sample dilution.
Figure 7 BMS-869780 dose response and evaluation of residual Aβ levels in rat brain. (a) Groups of rats received intraperitoneal (IP) injections of vehicle or BMS-869780 at doses of 100, 30, 10, 3, 1, and 0.3 mg/kg. Additional rats were dosed with GSI BMS-698861 at 30 mg/kg as a positive control for Aβ-lowering. Group sizes were seven rats for each dose of BMS-869780 and 14 rats for vehicle and GSI dose groups. Brain and plasma were harvested 5 hours after dosing. Brain Aβ1-42 (green), brain Aβ1-40 (blue), brain Aβ1-x (black), and plasma Aβ1-40 (red) were determined. Values are expressed as % relative to vehicle group mean. Whiskers represent standard error. ⊗Aβ1-x was not determined in the groups dosed at 3, 1, and 0.3 mg/kg. (b) Brain Aβ1-40 was plotted against brain Aβ1-42 for each rat dosed with BMS-869780 (black ▼) and for each rat dosed with vehicle (grey ●). Values are expressed as % relative to vehicle group mean. Whiskers represent standard error. […]

[2] = tested on: rat brain APP-CTFβ and APP-CTFα; assay: Immunoprecipitation and western blot of APP-CTFβ and APP-CTFα from rat brain; assay type: in vivo; details: 10 mg/kg, 5 hours
Protocol: Rats were given oral doses of BMS-869780, and levels of brain Aβ, βCTF, and αCTF were determined 24 hours later. For comparison, BMS-698861 was dosed in a separate experiment and samples were taken 5 hours later. (a) Brain levels of Aβ1-42 (red), Aβ1-40 (green), Aβ1-38 (blue), and Aβ1-37 (purple) are shown as bars stacked upon one another. The total height of each bar therefore represents the sum of the four peptides. (b) Aβ1-42 (red—left Y axis) and Aβ1-x (grey—right Y axis). The same results for Aβ1-42 are plotted in both (a) and (b). (c) Rat brain βCTF was detected by western blotting of immunoprecipitates from samples of the same rat brains used for Aβ determinations. V, vehicle groups; results from rats dosed with 1.9, 22, 100, and 235 mg/kg of BMS-869780 and 10 mg/kg BMS-698861 (GSI) are indicated. (d) Western blots of immunoprecipitated αCTF from the same rat brain samples. (e) and (f) quantification of western blots shown in (c) and (d), respectively, expressed relative to percent of average level of CTF in vehicle-treated rats. Actual doses of BMS-869780 were determined by analysis of concentrations in left-over dosing solutions. […]

rat brain Aβ = assay: Rat brain Aβ peptides after oral dose (4-plex immunoassay and Aβ1-x); assay type: in vivo; details: 10 mg/kg, 5 hours
Protocol: as §1
Rats were given oral doses of BMS-869780, and levels of brain Aβ, βCTF, and αCTF were determined 24 hours later. For comparison, BMS-698861 was dosed in a separate experiment and samples were taken 5 hours later. […] (c) Rat brain βCTF was detected by western blotting of immunoprecipitates from samples of the same rat brains used for Aβ determinations. […] (e) and (f) quantification of western blots shown in (c) and (d), respectively, expressed relative to percent of average level of CTF in vehicle-treated rats. […]

[3] = tested on: Aβ1-42 in cerebrospinal fluid; design: method as in PMID 18090435; details: clinical trials, even at high doses; cited from earlier work
brain Aβ1-42 = tested on: brain Aβ1-42; design: method as in PMID 12897211, PMID 17650315; details: rodents; cited from earlier work
Notch/Aβ1-40 = tested on: Notch/Aβ1-40; design: method as in PMID 24900185; details: cited from earlier work

NC(=O)[C@@H](CC1CC1)N(Cc1ccc(-c2ncon2)cc1F)S(=O)(=O)c1ccc(Cl)cc1 [BMS-698861, reference compound]
Aβ lowering in all Aβ assays including Aβ1-x [1]: robust lowering in all Aβ assays
rat brain APP-CTFβ and APP-CTFα levels [2]: increased several-fold
rat brain Aβ1-40, Aβ1-42, Aβ1-38, Aβ1-37 and Aβ1-x (rat brain Aβ): decreased levels of all the peptides

CC(C(=O)O)c1ccc(-c2ccccc2)c(F)c1 (stereo not drawn) [flurbiprofen]
effect on Aβ1-42 in cerebrospinal fluid [3]: no effect on Aβ1-42 in cerebrospinal fluid
effect on brain Aβ1-42 (brain Aβ1-42): lower brain Aβ1-42 in rodents

NC(=O)[C@@H](CCC(F)(F)F)N(Cc1ccc(-c2ncon2)cc1F)S(=O)(=O)c1ccc(Cl)cc1 [avagacestat]
Notch/Aβ1-40 IC50 ratio (Notch/Aβ1-40): 193
